According to patent publication US11214540B2, “Compositions for treating neurodegenerative diseases” (COGNITION THERAPEUTICS, INC., priority 2017, dated 2022):
Where two headings read alike, the source gives them in different places.

Assays:
[1] = Mouse liver microsome (MLM) stability; format: in vitro ADME; conditions: microsomal stability in mouse liver microsomes (MLM)
Procedure: A first pharmacokinetic study was performed in microsomes of mice mouse liver microsomes, MLM).
Microsomal stability experiments and plasma stability experiments were performed to determine metabolic and hepatic stability of candidate compounds.

log P = format: physicochemical; conditions: for logP: octanol/water
Procedure, shortened: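 Ratio of un-ionized compound concentrations between octanol and water, with aqueous pH set so the un-ionized form predominates. Value given as the log of the octanol/water ratio.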

[2] = tested on: Abeta oligomer-induced membrane trafficking deficits in primary hippocampal neurons; assay: Membrane Trafficking/Exocytosis (MTT) assay, Abeta oligomer effect on neurons; format: cell-based, rat; conditions: membrane trafficking, read-out: EC50 Abeta;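 note: compound potency for inhibiting the Abeta oligomer effect on exocytosis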
Procedure, shortened: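 Rat E18 hippocampal neurons cultured 3 weeks received compound (100 uM to 0.001 nM), then vehicle or Abeta 1-42 oligomers (3 μM total Abeta), for 1-24 h at 37 °C. MTT was added for 1 h, and formazan vesicle exocytosis was quantified by automated imaging with DAPI toxicity check. Tukey-Kramer comparisons were made with N=4.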

[3] = molecular target: Sigma-2 receptors on membranes from rat cerebral cortex (Rattus norvegicus (Rat), UniProt Q5U3Y7); assay: Competitive Radioligand Binding Assay 1, Sigma-2 binding ([3H]DTG displacement with (+)pentazocine mask); conditions: sigma-2 receptor affinity; read-out: S2 Ki
Chain of Sigma-2 receptors on membranes from rat cerebral cortex (Q5U3Y7 whole entry): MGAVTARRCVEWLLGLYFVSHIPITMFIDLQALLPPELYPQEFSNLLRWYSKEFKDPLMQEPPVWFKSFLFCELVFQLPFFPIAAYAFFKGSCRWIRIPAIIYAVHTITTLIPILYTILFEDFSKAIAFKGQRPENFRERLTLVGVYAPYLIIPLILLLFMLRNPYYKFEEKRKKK
Procedure: Using the same protocol, some compounds for which membrane trafficking data are given in Table 1 were tested for recognition of sigma-2 receptor. Certain compounds preferentially bind to the sigma-2 receptor.
(§1) For Sigma-1 binding, various concentrations of test compounds from 100 μM to 1 nM were used to displace 8 nM [3H](+)pentazocine from endogenous receptors on Jurkat cell membranes (Ganapathy M E et al. 1991, J Pharmacol. Exp. Ther. 289:251-260). 10 μM Haloperidol was used to define non-specific binding. […] (Bowen W D, et al. 1993, Mol. Neuropharmcol 3:117-126). 10 μM Haloperidol was used to define non-specific binding. Reactions were terminated by rapid filtration through Whatman GF/C filters using a Brandel 12R cell harvester followed by two washes with ice-cold buffer. Radioactivity on the dried filter discs was measured using a liquid scintillation analyzer (Tri-Carb 2900TR; PerkinElmer Life and Analytical Sciences). The displacement curves were plotted and the Ki values of the test compounds for the receptor subtypes were determined using GraphPad Prism (GraphPad Software Inc., San Diego, Calif.). The percentage specific binding was determined by dividing the difference between total bound (disintegrations per minute) and nonspecific bound (disintegrations per minute) by the total bound (disintegrations per minute).
Affinities for Sigma-1 and Sigma-2 receptors are typically obtained from published studies using cerebral tissue homogenates with [3H](+)pentazocine to measure displacement from Sigma-1 receptors and [3H] 1,3-Di-(2-tolyl)guanidine in the presence of 300 nM (+)pentazocine to measure displacement from Sigma-2 receptors.

[4] = molecular target: Sigma-1 receptors on Jurkat cell membranes (Homo sapiens (Human), UniProt Q99720); assay: Competitive Radioligand Binding Assay 1, Sigma-1 binding ([3H](+)pentazocine displacement); conditions: sigma-1 receptor affinity; read-out: S1 Ki
Chain of Sigma-1 receptors on Jurkat cell membranes (Q99720 whole entry): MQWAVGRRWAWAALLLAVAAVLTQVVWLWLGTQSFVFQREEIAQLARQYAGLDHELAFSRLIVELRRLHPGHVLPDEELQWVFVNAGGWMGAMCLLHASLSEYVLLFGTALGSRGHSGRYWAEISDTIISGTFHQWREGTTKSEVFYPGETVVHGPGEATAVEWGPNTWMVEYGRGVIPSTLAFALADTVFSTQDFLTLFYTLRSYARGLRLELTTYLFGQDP
Procedure: Certain compounds were tested for interaction with several receptors by blocking the binding or action of their agonists or antagonists. Some compounds were tested to see whether they interact directly with known cellular receptor or signaling proteins. Compounds can be tested for the ability to displace binding of known agonists or antagonists of a given human receptor that was overexpressed in cell lines or isolated from tissue. Compounds can also be tested for the ability to block downstream signaling induced by agonists or antagonists of a given human receptor. Compounds can be tested for action at 100 known receptors, and it is desirable that specific activity will occur at only a small subset of CNS-relevant receptors.
as §1, with “minute). […]” for “minute).”

potassium channel hERG = potassium channel hERG (Homo sapiens (Human), UniProt Q12809); assay: In vitro testing for hERG inhibition; format: biochemical; conditions: in vitro toxicity potassium channel hERG
Chain of potassium channel hERG (Q12809 whole entry): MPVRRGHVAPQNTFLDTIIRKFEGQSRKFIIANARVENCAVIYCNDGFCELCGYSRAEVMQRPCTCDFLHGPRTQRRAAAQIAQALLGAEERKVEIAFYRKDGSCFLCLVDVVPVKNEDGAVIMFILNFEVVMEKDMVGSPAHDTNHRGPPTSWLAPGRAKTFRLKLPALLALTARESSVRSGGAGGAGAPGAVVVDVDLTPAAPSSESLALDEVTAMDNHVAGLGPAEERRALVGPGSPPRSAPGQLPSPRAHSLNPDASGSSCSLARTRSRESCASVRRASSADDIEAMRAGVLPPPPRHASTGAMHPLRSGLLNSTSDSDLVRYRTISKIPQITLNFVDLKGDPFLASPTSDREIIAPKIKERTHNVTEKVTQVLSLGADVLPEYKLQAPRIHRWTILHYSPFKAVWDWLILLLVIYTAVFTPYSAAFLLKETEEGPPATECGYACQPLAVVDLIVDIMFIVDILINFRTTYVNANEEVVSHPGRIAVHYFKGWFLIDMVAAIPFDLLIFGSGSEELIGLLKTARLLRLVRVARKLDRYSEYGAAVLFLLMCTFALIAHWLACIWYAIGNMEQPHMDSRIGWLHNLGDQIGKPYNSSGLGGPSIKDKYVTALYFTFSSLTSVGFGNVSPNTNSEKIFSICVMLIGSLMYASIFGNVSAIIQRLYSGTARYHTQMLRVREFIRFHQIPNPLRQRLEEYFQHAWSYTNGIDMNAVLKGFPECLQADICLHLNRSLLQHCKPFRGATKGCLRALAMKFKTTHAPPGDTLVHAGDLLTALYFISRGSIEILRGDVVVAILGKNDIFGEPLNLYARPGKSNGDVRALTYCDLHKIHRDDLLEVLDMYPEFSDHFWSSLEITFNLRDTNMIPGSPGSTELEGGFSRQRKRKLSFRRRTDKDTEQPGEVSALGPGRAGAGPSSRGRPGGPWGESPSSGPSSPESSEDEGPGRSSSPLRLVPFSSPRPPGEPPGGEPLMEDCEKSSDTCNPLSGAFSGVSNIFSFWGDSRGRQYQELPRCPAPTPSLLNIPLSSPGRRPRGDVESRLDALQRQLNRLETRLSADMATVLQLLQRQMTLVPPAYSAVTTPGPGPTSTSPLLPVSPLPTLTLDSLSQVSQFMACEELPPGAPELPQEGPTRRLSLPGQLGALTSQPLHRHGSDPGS
Procedure: In vitro testing for hERG inhibition was performed in a standard assay (See: Haverkamp W, Breithardt G, Carnm A J, Janse M J, Rosen M R, Antzelevitch C, Escande D, Franz M, Malik M, Moss A and Shah R. (2000) Eur Heat J 21 (15); 1216-31).

[5] = Rattus norvegicus, Hippocampal neuron

Row | Compound | MLM T1/2 [1] [min] | log P (log P) | EC50 [2] [nM] | Ki [3] [nM] | Ki [4] [nM] | IC50 (potassium channel hERG) [µM] | logP (log P) | EC50 [2, 5] [nM]
1 | CC(C)=CC(CC(C)(C)c1ccc(C)cc1)N(C)CC1CCOCC1 (centres unmarked) [Compound 112] | 4.9 | 5.59 | – | – | – | – | – | –
2 | COc1ccc(C(C)(C)CC(C=C(C)C)NC2CCOCC2)cc1 (centres unmarked) [Compound 99] | 7.4 | 4.08 | 20000 | – | – | – | – | –
3 | COc1ccc(C(C)(C)CC(C=C(C)C)N2CCC3(CCOCC3)CC2)cc1 (centres unmarked) [Compound 98] | 1.7 | 5.11 | 20000 | – | – | – | – | –
4 | CC(C)=CC(CC(C)(C)c1ccc(C)cc1)N1CCC2(CCOCC2)CC1 (centres unmarked) [Compound 97] | 8.7 | 5.78 | 10000 | – | – | – | – | –
5 | COc1ccc(C(C)(C)CC(C=C(C)C)N(C)CCCC2CCOCC2)cc1 (centres unmarked) [Compound 110] | 2.6 | 5.73 | 20000 | – | – | – | – | –
6 | CC(C)=CC(CC(C)(C)c1ccc(C)cc1)NC1CCOCC1 (centres unmarked) [Compound 100] | 4.5 | 4.75 | 13600 | – | – | – | – | –
7 | COC1CCN(C(C=C(C)C)CC(C)(C)c2ccc(C(F)(F)F)cc2)CC1 (centres unmarked) [Compound 39] | – | 5.49 | 600 | 43 | 25 | 8.2 | – | –
8 | CC(C)(CCN1CCC(O)CC1)c1ccc(C(F)(F)F)cc1 [Example 17] | – | – | – | 5.1 | 1.3 | 11 | 3.43 | 2240
9 | CC(CC(C)(C)c1ccc(C(F)(F)F)cc1)N1CCC(CCO)CC1 (centres unmarked) [Compound 2] | – | 4.67 | > 15000 | 0.6 | 0.9 | 9.2 | – | –
10 | COC1CCN(CCC(C)(C)c2ccc(Cl)cc2)CC1 [Compound 10] | – | 3.8 | 1260 | 2.1 | 0.7 | 11 | – | –
11 | CCOC1CCN(C(C=C(C)C)CC(C)(C)c2ccc(F)cc2)CC1 (centres unmarked) [Compound 59] | – | 5.12 | 250 | 160 | 600 | 73 | – | –
12 | COCCOCCC1CCN(C(C=C(C)C)CC(C)(C)c2ccc(C(F)(F)F)cc2)CC1 (centres unmarked) [Compound 40] | – | 6.28 | 830 | 44 | 170 | 9.6 | – | –
13 | CC(C)=C[C@@H](CC(C)(C)c1ccc(C(F)(F)F)cc1)N1CCC[C@@H]1CO [Compound 83] | – | 5.31 | 3800 | 1000 | 1000 | 14 | – | –
14 | COC[C@H]1CCCN1C(C)CC(C)(C)c1ccc(Cl)cc1 (some centres unmarked) [Compound 84] | – | 4.67 | 250 | 1000 | 1000 | 3.9 | – | –
15 | CC(C)(CCN1CCC(O)CC1)c1ccc(Cl)cc1 [Compound 8] | – | 3.16 | 250 | 1.6 | 0.4 | 14 | – | –
16 | CC(C)=CC(CC(C)(C)c1ccc(C(F)(F)F)cc1)N1CCC(OC(C)C)CC1 (centres unmarked) [Compound 44] | – | 6.27 | 1400 | 79 | 260 | 9.2 | – | –
17 | CC(C)=CC(COc1ccc(F)cc1)N1CCC(O)CC1 (centres unmarked) [Compound 18] | – | 2.72 | 250 | 5.6 | 2.6 | 29 | – | –
18 | COC1CCN(C(C)CC(C)(C)c2ccc(C(F)(F)F)cc2)CC1 (centres unmarked) [Compound 6] | – | 4.49 | > 15000 | 1 | 0.3 | 0.75 | – | –
19 | CC(C)=CC(CCc1ccc(C)cc1)N1CCC(C2CCOCC2)CC1 (centres unmarked) [Compound 114] | 1.8 | 5.63 | – | – | – | – | – | –
20 | CC1(O)CCN(CCC(C)(C)c2ccc(C(F)(F)F)cc2)CC1 [Example 14] | – | – | – | 3 | 1.9 | 18 | 3.71 | 3700
21 | CC(=O)N1CCN(C(C=C(C)C)CC(C)(C)c2ccc(Cl)cc2)CC1 (centres unmarked) [Compound 75] | – | 4.33 | 250 | 690 | 690 | 15 | – | –
